How the values were obtained:
Format in all cases: in vivo
[1] = system: Tomato plants (Lycopersicum esculentum cv. Cristal F1); experiment: Protection of tomato plants against water stress by foliar glycine-betaine, with or without adjuvant A2 (greenhouse)
Protocol: Example 9. It was tested the efficacy of adjuvant A2, obtained according to Ex.4 on the performances of glycine-betaine, compound with an osmoprotectant action, regarding the protection of tomato plants against water stress. Glycine - betaine presents a molecule with quaternary nitrogen, strongly polar, with a reduced penetrability on the hydrophobic plant cuticle.
Tomato plants (Lycopersicum esculentum cv. Cristal F1), transplants of 60 days, were re-potted in vegetation pots of 25 cm dia. and 50 cm height, on which was introduced a synthetic grown substrate enriched with nutrients for the first week of plant growth (Canna Terra Professional Plus, Canna International BV). The vegetation pots were maintained in greenhouse conditions, at 22±2°C during the day and 17±2°C during the night, with a photoperiod of 12 hours, supplemented with light with an intensity of 160 µE/m^2/s, from a metal halide lamp, when the light intensity was below 500 µE/m^2/s. […] The grown substrate contained initial nutrient reserves, thus the plants were fertilized only one time, at 28 days after transplantation, by the application of 100 ml of nutritive solution 1 g/l of fertilizer 20 - 8 - 20 (N-P2O5-K2O, Eurofertil, TimacAgro Romania). The experiment was organized in a random bloc with 4 repetitions for each treatment, each repetition including 5 plants. It was used purified glycine-betaine (99%, Sigma Aldrich, St. Louis, Mo, US). The experimental treatments included also controls, sprayed only with water, water stress control and unstressed control. These experimental treatments were: • V1 - control unstressed, sprayed with water; 2 treatments x 2 ml per plant, equivalent 100 l/ha; • V2 - control water stressed, sprayed with water; 2 treatments x 2 ml per plant, equivalent 100 l/ha; • V3 - water stressed, sprayed with glycine-betaine; 2 treatments x 2 ml 5 mM per plant, equivalent 58,5 g in 100l/ha; […]; […]; • V5 - water stressed, sprayed with glycine -betaine and adjuvant, 2 treatments x 2 ml solution 5 mM betaine + 1% adjuvant A2 per plant, equivalent 58,5 g betaine and 1 kg adjuvant A2 in 100l/ha.
Treatments were applied in the 2nd and 29th day after transplantation, by spraying each plant with the help of a glass atomizer with metal top and plastisol bulb (model 15-RD, DeVilbiss Healthcare, Somerset, PA, USA). The unstressed control was irrigated once every five day at 100% field capacity, and the water stressed plants were irrigated each two weeks at 100% field capacity. […] The data were processed by analysis of variance (Statistica 10, StatSoft).

[2] = system: leafminers flies, Liriomyza trifolii (Burgess); experiment: Field test of spinosad with or without adjuvant A3 against leafminer larvae on muskmelon; details: per sampled leaf, 3 days after treatment, acetamipirid 0.025%, spinosad 0.05%, adjuvant A3 0.4%
Protocol: Example 10. The effect of adjuvant A3, obtained according to Example 5, was tested to determine whether its addition improve the activity of spinosad against leafminers flies, Liriomyza trifolii (Burgess). Spinosad is a metabolite produced by biosynthetic process by the actinomycetes Saccharopolyspora spinosa, and provides excellent crop protection with a relatively low toxicity to non-target organisms, including many beneficial insects. For that reason spinosad is accepted on organic farming systems. […] Addition of the spraying adjuvant increase the efficacy of spinosad based insecticide in controlling leafminers larvae (Larson, 1997, Arthrop. Manag. Test. 22:415-416).
The experiment was done on the Fundulea experimental field, which characteristics were already presented in Example 6. The muskmelon (Cucumis melo L., cv. Charentais) experimental plots were established on 19th of April, 2012, using 25 days old transplants, on a density equivalent to 12.000 transplants per ha. The experimental filed where experiment was plotted was previously cultivated with corn and was fertilized with 200 kg/ha equivalent complex fertilizer NPK 15:15:15 (Azomure ? ), on beginning of March. Herbicidation was done by application on the whole surface of a dose of 4 l/ha Stomp 330 EC, sprayed in a mixture with 450 l water per ha, 10 days before transplantation, and incorporated in soil with a by harrowing with a disc harrow.
Plots of 20 m^2 were made with edges of two untreated rows, in random blocks, with 4 repetitions on each treatment. Application of treatments were done with a backpack sprayer SG10 (Stihl AG, Waiblingen, Germany), by spraying from 40 cm, with a spraying pressure set-up to 275 kPa, using a nozzle with flat jet and low drift (TeeJett® flat-fan TT11002 model, Spraying Systems Co., Wheaton, IL, USA). Were applied […], one in the phenophase of 3...4 leaves and in the phenophase 6...8 leaves, as a second treatment. In phenophase 3...4 leaves, one day after the treatment with insecticide, was applied also a treatment with Previcur 607 SL (propamocarb 607 g/l) for controlling the downy mildew (Pseudoperonospora cubensis), on the whole area of the experiment. The experimental treatments were: • V1 - control, untreated for Liriomyza trifolii; • V2 - acetamipirid 0.025% (Mospilan 20 SG, 200 g/kg acetamipirid, Nippon Soda Company, Tokio, Japonia), equivalent 0.1 kg/ha in a spraying norm of 400 l/ha, considered as standard for treatment of leafminers flies larvae because is a systemic insecticide; • V3 - spinosad 0.05% (Laser 240 SC, 240 g/l spinosad, Dow AgroSciences, Indianapolis, USA), equivalent 0.2 kg/ha at a spraying norm of 400 l/ha; • V4 - spinosad 0.05% (Laser 240 SC, 240 g/l spinosad, Dow AgroSciences, Indianapolis, USA), equivalent 0.2 kg/ha at a spraying norm of 400 l/ha + adjuvant A3, according to Example 5, 0.4%, equiv. to 1.6 kg at a spraying norm of 400 l/ha.
The impact of each treatment on leafminer larvae mortality was estimated by counting the number of live and dead / paralyzed larvae, and also of the empty and total mines per each sampled leaf. A total of 10 leaves per experimental plot were collected at 3 days after treatment and examined in the laboratory for presence of mines in leaves and larvae status in the mines. The data were processed by analysis of variance (Statistica 10, StatSoft). Tab. 11.The influence of spray adjuvant A3 on the efficacy of spinosad in controlling the leafminers larvae on muskmelon.

[3] = system: winter wheat (Triticum aestivum L.), cultivar Capo; experiment: Selenium biofortification of wheat grains by foliar sodium selenite, with or without adjuvant A1.2 (field experiment); details: 300 l/ha; for Selenium content in the wheat grains (mcg/kg): applied at GS31; for Yield (kg/ha): yield with 86% dry matter
From the text: Example 7. On the experimental field from Fundulea was done also an experiment in order to establish the effect of adjuvant A1.2 on the biofortification treatment with sodium selenite applied as foliar fertilizers on wheat. Se (IV) from the sodium selenite is a selenium species which are not translocated from the radicular system into the foliar one through xylem (Zhu et al., 2009, Trends Plant Sci. 14:436-442), thus an eventually biofortification of the wheat yield resulted from the treatment with selenite is the result of the selenite absorbed through cuticle and not of that absorbed by radicular system after leakage on soil. The soil on which was done the experiment has the characteristics presented in the above tab. 6, and the total selenium content (HF + HNO3 + HCl) is 0.197 mg/kg.
The experiment was done of experimental plots of 25 m^2, with winter wheat (Triticum aestivum L.), cultivar Capo, cultivated in similar conditions with those already presented in Example 6 regarding the agrotechnics, base fertilization before seeding and crop protection. The experiment was done in random blocks in a Latin square, 4 treatments in 4 repetitions. The 4 treatments were: • V1 - control, treated with water, • V2 - sprayed with a solution of sodium selenite pentahidrate, Na2SeO3.5 H2O, 0.0111%, equiv. 10 g Se/ha for a spraying norm of 300 l/ha; • V3 - sprayed with a solution of sodium selenite pentahidrate, Na2SeO3.5 H2O, 0.0222%, equiv. 20 g Se/ha for a spraying norm of 300 l/ha; • V4 - sprayed with a solution of sodium selenite pentahidrate, Na2SeO3.5 H2O, 0.0111 %, equiv. 10 g Se/ha for a spraying norm of 300 l/ha and 0.5% spraying adjuvant A1.2 Ex.2, equivalent to a dose of 1.5 kg/ha.
Application of the solutions was done with a backpack sprayer SG10 (Stihl AG, Waiblingen, Germany), by spraying from 40 cm, with a spraying pressure set-up to 275 kPa, using a nozzle with flat jet and low drift (TeeJett® flat-fan TT11002 model, Spraying Systems Co., Wheaton, IL, USA). The treatments were applied during the growth stages GS31 (5th April 2012). On the end of the vegetation season each repetition was separately harvested, the realized production being expressed in kg/ha with 86% dry matter. In the wheat grain selenium was determined, by atomic absorption spectrophotometry with hydride generation (Tinggi et al., 1992, J. Food Comp. Anal. 5, 269-280). The date were analyzed by application of the linear general model, to determine the average values and the significance differences at a probability level of 5% (Statistica 10, StatSoft, Tulsa, OK, US). Tab. 8. Influence of the adjuvant A1.2 done according to the invention on the biofortification treatment of wheat grains (cv. Capo) with selenium.

[4] = system: common cocklebur (Xanthium strumarium); experiment: Greenhouse test of adjuvants on nicosulfuron efficacy, common cocklebur; details: nicosulfuron 50 g/ha, without adjuvant, Trend 90 0,1% or soybean oil methylate 1%
Protocol: (§1) Example 8. The basic adjuvant A1.3 was tested on greenhouse conditions in order to verify its effect on the performance increase of nicosulfuron, herbicide representative for the category of weakly acid herbicides from the sulfonylurea class, which solubility in water is increased on high pH. The used test plants were common cocklebur (Xanthium strumarium), dicotyledonous weed, and large crabgrass (Digitaria sanguinalis), monocotyledonous weed. The common cocklebur was sown on approx. 2 cm deep, in plastic pots of 15 cm diameter, and after emergence was thinned to only 2 plants. The large crabgrass was planted in the same type of plastic pots, at 1 cm deep, and after emergence was thinned to a cluster of around 15 plants. The pots contain a synthetic grown substrate enriched with nutrients for the first week of plant growth ([…] Professional Plus, Canna International BV, Oosterhout, Netherlands), and consequently were not applied fertilizers. […] At three weeks after the treatment it was determined the fresh weight of plants on each repetition by weighting and was estimated the phytotoxicity, using a scale from 0% (without visible symptoms) to 100% (plant completely destroyed). […]

[5] = system: large crabgrass (Digitaria sanguinalis); experiment: Greenhouse test of adjuvants on nicosulfuron efficacy, large crabgrass; details: nicosulfuron 50 g/ha, without adjuvant, Trend 90 0,1% or soybean oil methylate 1%
Protocol: as §1

[6] = V3 water stressed, 2x 5 mM equiv. 58,5 g in 100 l/ha
[7] = V3 water stressed, 2x 5 mM equiv. 58,5 g in 100 l/ha, 8 weeks after transplantation
[8] = fresh weight three weeks after treatment
[9] = three weeks after treatment, scale 0-100%

C[N+](C)(C)CC(=O)O [glycine-betaine]
Leaves surfaces (mm^2) [1, 6]: 587.58±4.92ab mm^2 | Number of Leaves [1, 6]: 28.00±2.1b | Plant height (cm) [1, 7]: 47.30±3.42c cm | Root length (cm) [1, 7]: 45.50±2.39b cm | Average yield** (g ripened fruits / plant) ([1]; V3 water stressed, 2x 5 mM equiv. 58,5 g in 100 l/ha, production for 30 days cycle of flowering - fructification): 223±28.2b g ripened fruits / plant | Leaves surfaces (mm^2) ([1]; V4 water stressed, 2x 5 mM equiv. 117 g in 100 l/ha): 663.16±5.84a mm^2 | Root length (cm) ([1]; V4 water stressed, 2x 5 mM equiv. 117 g in 100 l/ha, 8 weeks after transplantation): 54.80±1.88b cm

spinosad
Dead larvae ([2]; First treatment): 1.8b | Empty mines ([2]; First treatment): 3.3b | Mines total ([2]; First treatment): 8.2b | Mines with live larvae ([2]; First treatment): 1.2b | Dead larvae ([2]; Second treatment): 3.1a | Empty mines ([2]; Second treatment): 2.7a | Mines total ([2]; Second treatment): 6.8b | Mines with live larvae ([2]; Second treatment): 0.3a

O=[Se](O)O [Na2SeO3.5 H2O, sodium selenite pentahidrate]
Selenium content in the wheat grains (mcg/kg) ([3]; equiv. 10 g Se/ha): 105b mcg/kg | Yield (kg/ha) ([3]; equiv. 10 g Se/ha): 4958a kg/ha | Selenium content in the wheat grains (mcg/kg) ([3]; equiv. 20 g Se/ha): 142a mcg/kg | Yield (kg/ha) ([3]; equiv. 20 g Se/ha): 4549b kg/ha

COc1cc(OC)nc(NC(=O)NS(=O)(=O)c2ncccc2C(=O)N(C)C)n1 [nicosulfuron]
Mass reduction (% control) [4, 8]: 59c % control | Phytotoxicity (%) [4, 9]: 33c % | Mass reduction (% control) [5, 8]: 52c % control | Phytotoxicity (%) [5, 9]: 40c %

C/C(=N\C#N)N(C)Cc1ccc(Cl)nc1 [Acetamipirid, acetamipirid]
Dead larvae ([2]; First treatment): 0.1c | Empty mines ([2]; First treatment): 0c | Mines total ([2]; First treatment): 0.4a | Mines with live larvae ([2]; First treatment): 0.1c | Dead larvae ([2]; Second treatment): 0.3c | Empty mines ([2]; Second treatment): 0b | Mines total ([2]; Second treatment): 0.2a | Mines with live larvae ([2]; Second treatment): 0b

Source: patent publication EP2777394A1, “Agricultural adjuvant composition and process for its obtainment” (SC Teso Spec SRL, priority 2012, dated 2014)
